Data on 31 compounds can be found in US4304781A, “Treatment of ulcers and hypertension” (John Wyeth & Brother Limited, priority 1978, dated 1981).

One experiment has as its system stress-induced erosion. Description: Stress-induced erosion test (Senay & Levine), anti-ulcer activity. Type of experiment: in vivo. The protocol:
(§1) Anti-ulcer activity was determined by the stress-induced erosion test of Senay & Levine, Proc. Soc. Exp. Biol. Med., 124, 1221-1223 (1967) and anti-secretory activity by the test of H. Shay, D. Sun and H. Greenstin, Gastroenterology, 1954, 26, 903-913 as exemplified by Beattie et al J. Med. Chem., 20, 714 (1977). […] However, some compounds show activity in tests for anti-hypertensive activity.

The next experiment concerns hypersecretion. Description: Anti-secretory activity test (Shay et al). The class given is in vivo. The settings on record: for change in vivo at 30 mg/kg / change in vivo at 10 mg/kg: read-out: Anti-secretory, % change in Vol.; for change in vivo at 30 mg/kg / Anti-secretory, % change in Vol.: 30 mg/kg. Also on record: key to Anti-secretory, % change in Vol.: NS: Not Significant. The protocol: as §1

For orientation: inhibition in vivo means the percentage by which the read-out fell short of the control. The compound `C[n+]1ccccc1SCCCCc1ccccc1` [Example 40, 1-Methyl-2-((4-phenylbutyl)thio)pyridinium bromide] registered an inhibition in vivo at 100 mg/kg with stress-induced erosion of 67%. Moreover, in the experiment with hypersecretion, the change in vivo at 30 mg/kg is -36%.

For `CCOC(OCC)c1ccc[n+](-c2ccccc2)c1SCc1ccccc1` [Example 19, 2-Benzylthio-3-(diethoxy)methyl-1-phenylpyridinium chloride], the change in vivo at 30 mg/kg in the experiment with hypersecretion was -88%.

As for `C[n+]1ccccc1SCc1ccc(Br)cc1` [Example 13, 2-(4-Bromobenzylthio)-1-methylpyridinium bromide], in the experiment on stress-induced erosion, the inhibition in vivo at 30 mg/kg turned out to be 73% and the inhibition in vivo at 100 mg/kg was 70%. Also, the “Anti-secretory, % change in Vol.” value in the experiment with hypersecretion was “NS”.

In turn, `C[n+]1ccccc1SCCCc1ccccc1` [Example 7, 1-Methyl-2-(3-phenylpropylthio)pyridinium bromide] gave an inhibition in vivo at 100 mg/kg with stress-induced erosion of 77%. The “Anti-secretory, % change in Vol.” value with hypersecretion was “NS”.

`c1ccc(CSC2=NCCCC2)cc1` [Example 43, 2-Benzylthio-3,4,5,6-tetrahydropyridine]: the change in vivo at 30 mg/kg with hypersecretion is -48%.

Consider `c1ccc(CSc2ccncc2)cc1` [Example 34, 4-Benzylmercaptopyridine], for which the inhibition in vivo at 100 mg/kg with stress-induced erosion was 64%. Besides, the “Anti-secretory, % change in Vol.” value with hypersecretion was “NS”.

As for `C[n+]1ccccc1SCc1cccc([N+](=O)[O-])c1` [Example 32, 1-Methyl-2-((3-nitro)benzylthio)pyridinium chloride], testing at 100 mg/kg in the experiment with stress-induced erosion gave an inhibition in vivo of 73%. Besides, in the experiment on hypersecretion, the “Anti-secretory, % change in Vol.” value is reported as “NS”.

In the case of `C[n+]1ccccc1SCC=Cc1ccccc1` [Example 16, 2-Cinnamylthio-1-methylpyridinium bromide], in the experiment with hypersecretion, the change in vivo at 30 mg/kg was -55%.

`Cc1ccccc1CSc1cccc[n+]1C` [Example 33, 1-Methyl-2-((2-methyl)benzylthio)pyridinium bromide]: in the experiment on stress-induced erosion, testing at 100 mg/kg gave an inhibition in vivo of 73%. The “Anti-secretory, % change in Vol.” value with hypersecretion was “NS”.

Regarding `C[n+]1ccccc1SCc1cccc(F)c1` [Example 22, 2-((-3-Fluorobenzyl)thio)-1-methylpyridinium chloride], in the experiment with stress-induced erosion, testing at 30 mg/kg gave an inhibition in vivo of 64% and the inhibition in vivo at 100 mg/kg came to 72%. The change in vivo at 30 mg/kg in the experiment on hypersecretion was -69%.

For `C[n+]1ccccc1SCc1cc(Cl)cc(Cl)c1` [Example 28, 2-(3,5-Dichlorobenzyl)thio)-1-methylpyridinium chloride], the change in vivo at 30 mg/kg in the experiment on hypersecretion was -55%.

As for `C[n+]1ccc(SCc2ccccc2)cc1` [Example 23, 4-Benzylthio-1-methylpyridinium bromide], in the experiment with stress-induced erosion, the inhibition in vivo at 30 mg/kg was 70% and the inhibition in vivo at 100 mg/kg came to 80%. Also, the “Anti-secretory, % change in Vol.” value in the experiment on hypersecretion is reported as “NS”.

In the experiment with stress-induced erosion, `Cc1ccc(CSc2cccc[n+]2C)cc1C` [Example 8, 1-Methyl-2-(3,4-dimethylbenzylthio)pyridinium chloride] displayed an inhibition in vivo at 30 mg/kg of 70% and an inhibition in vivo at 100 mg/kg of 62%. In the experiment on hypersecretion, the “Anti-secretory, % change in Vol.” value is given as “NS”.

In the experiment on stress-induced erosion, `C[n+]1ccccc1SCc1ccc([N+](=O)[O-])cc1` [Example 6, 1-Methyl-2-(4-nitrobenzylthio)pyridinium bromide] returned an inhibition in vivo at 100 mg/kg of 84%. Also, the “Anti-secretory, % change in Vol.” value with hypersecretion was “NS”.

As for `Cc1ccc(CSc2cccc[n+]2C)cc1` [Example 10, 1-Methyl-2(4-methylbenzylthio)pyridinium bromide], the change in vivo at 30 mg/kg with hypersecretion is -43%.

For the compound `C[n+]1ccccc1SCc1ccccc1` [Example 1, 2-Benzylthio-1-methylpyridinium bromide], in the experiment with stress-induced erosion, testing at 30 mg/kg gave an inhibition in vivo of 92% and at 100 mg/kg the inhibition in vivo was 75%. In the experiment with hypersecretion, the change in vivo at 30 mg/kg is -71%.

In the experiment on stress-induced erosion (10 mg/kg), `C[n+]1ccccc1SCc1ccc(OCc2ccccc2)cc1` [Example 14, 2-(((4-Benzyloxy)benzyl)thio)-1-methylpyridinium chloride] returned an inhibition in vivo at 10 mg/kg of 60%. In the experiment with stress-induced erosion, this compound registered an inhibition in vivo at 30 mg/kg of 73% and an inhibition in vivo at 100 mg/kg of 90%. Moreover, in the experiment with hypersecretion, the change in vivo at 10 mg/kg was -19% and the change in vivo at 30 mg/kg was -49%.

As for `C[n+]1ccccc1SCc1ccc(F)cc1` [Example 21, 2((4-Fluorobenzyl)thio)-1-methylpyridinium chloride], in the experiment with stress-induced erosion, the inhibition in vivo at 30 mg/kg turned out to be 71% and 100 mg/kg produced 82% inhibition in vivo. In addition, in the experiment with hypersecretion, the change in vivo at 30 mg/kg is -67%.

As to `C[n+]1ccccc1SCc1ccccc1Cl` [Example 27, 2-((2-Chlorobenzyl)thio)-1-methylpyridinium chloride], in the experiment on hypersecretion, the change in vivo at 10 mg/kg was -39% and the change in vivo at 30 mg/kg was -66%.

Regarding `CC(CSc1cccc[n+]1C)c1ccccc1` (stereo not shown) [Example 9, 1-Methyl-2-(2-phenylpropylthio)pyridinium bromide], the change in vivo at 30 mg/kg in the experiment on hypersecretion was -32%.

For `C[n+]1ccccc1SCc1ccccc1F` [Example 20, 2-((2-Fluorobenzyl)thio)-1-methyloyridinium chloride], in the experiment with stress-induced erosion, the inhibition in vivo at 30 mg/kg came out at 76% and 100 mg/kg produced 70% inhibition in vivo. Also, in the experiment on hypersecretion, the change in vivo at 10 mg/kg was -54% and the change in vivo at 30 mg/kg was -90%.

In turn, `C[n+]1ccccc1SCc1cccc(I)c1` [Example 35, 2-((3-Iodobenzyl)thio)-1-methylpyridinium chloride] displayed an inhibition in vivo at 100 mg/kg in the experiment on stress-induced erosion of 67%. Moreover, the change in vivo at 30 mg/kg in the experiment on hypersecretion was -41%.

In turn, `C[n+]1cccc(C=O)c1SCc1ccccc1` [Example 29, 2-Benzylthio-3-formyl-1-methylpyridinium bromide] gave an inhibition in vivo at 100 mg/kg in the experiment on stress-induced erosion of 71%. In addition, the change in vivo at 30 mg/kg with hypersecretion is -48%.

In the case of `C[n+]1ccc(SCc2cccc(Cl)c2)cc1` [Example 24, 4-((3-Chlorobenzyl)thio)-1-methylpyridinium chloride], in the experiment with stress-induced erosion, the inhibition in vivo at 30 mg/kg came to 60% and 100 mg/kg produced 23% inhibition in vivo. The change in vivo at 30 mg/kg in the experiment on hypersecretion is -40%.

In turn, `Clc1cccc(CSc2ccncc2)c1` [Example 31, 4((3-Chloro)benzylthio)pyridine] returned an inhibition in vivo at 100 mg/kg in the experiment with stress-induced erosion of 62%. Besides, in the experiment with hypersecretion, the change in vivo at 30 mg/kg was -34%.

With `c1ccc(CSc2cccc[n+]2Cc2ccccc2)cc1` [Example 45, 1-Benzyl-2-(benzylthio)pyridinium bromide], in the experiment with hypersecretion, the change in vivo at 30 mg/kg was -75%.

For the compound `COc1ccc(CSc2cccc[n+]2C)cc1` [Example 26, 2-((4-Methoxybenzyl)thio)-1-methylpyridinium chloride], the change in vivo at 30 mg/kg in the experiment on hypersecretion was -46%.

`COc1cccc(CSc2cccc[n+]2C)c1` [Example 36, 2-((3-Methoxybenzyl)thio)-1-methylpryridinum chloride] displayed an inhibition in vivo at 100 mg/kg in the experiment with stress-induced erosion of 69%. For the same compound, the “Anti-secretory, % change in Vol.” value in the experiment with hypersecretion is recorded as “NS”.

Take `C[N+]1=C(SCc2ccccc2)CCCC1` [Example 44, 2-Benzylthio-3,4,5,6-tetrahydro-1-methylpyridinium bromide]: the change in vivo at 30 mg/kg with hypersecretion was -52%.

As for `O=[N+]([O-])c1ccc(C[n+]2ccccc2SCc2ccccc2)cc1` [Example 41, 1-(4-Nitrobenzyl)-2-(benzylthio)-pyridinium bromide], at 100 mg/kg the inhibition in vivo with stress-induced erosion was 69%. Besides, the “Anti-secretory, % change in Vol.” value in the experiment with hypersecretion is reported as “NS”.

On to `c1ccc(CSc2ccccn2)cc1` [Example 38, 2-((Benzyl)thio)pyridine], for which the change in vivo at 30 mg/kg in the experiment with hypersecretion was -32%.
